# Where two headings read alike, the source gives them in different places.
# System: iCell cardiomyocytes (human iPSC-derived cardiomyocytes)
# Assay: High-content imaging of cytotoxicity and mitochondrial integrity in iPSC-CMs
# Assay type: cell-based
# Conditions: Homo sapiens, Cardiomyocyte; for viability at 0.01 µM / activity at 0.01 µM / viability at 0.1 µM / activity at 0.1 µM / viability at 1 µM / activity at 1 µM / viability at 10 µM / activity at 10 µM / viability at 100 µM / activity at 100 µM: 0.00 µM = 100.00; for viability at 0.1 µM / activity at 0.1 µM: 0.10 µM
# Procedure, shortened: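 Cardiomyocytes grown on gelatinized 384-well plates received fresh medium on the experiment day and were then exposed to chemicals at 0.01–100μM. Nuclei and mitochondria were labeled with Hoechst 33342 and MitoTracker™ Orange, then fixed, and imaged on an ImageXpress® Micro Confocal system. Four-parameter logistic concentration–response fits in R, with a one-standard-deviation vehicle cutoff, gave point-of-departure values.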
# [1] = 1.5 h, 90min, read-out: cm.cam.90min
# [2] = 1.5 h, 90min, read-out: cm.mii.90min
# [3] = 1.5 h, 90min, read-out: cm.mito.90min
# [4] = 1.5 h, 90min, read-out: cm.tc.90min
# [5] = 24 h, 24hrs, read-out: cm.cam.24hrs
# [6] = 24 h, 24hrs, read-out: cm.mii.24hrs
# [7] = 24 h, 24hrs, read-out: cm.mito.24hrs
# [8] = 24 h, 24hrs, read-out: cm.tc.24hrs
smiles,measurement,setting,value
Oc1cc(Cl)c(-c2cc(Cl)ccc2Cl)cc1Cl [4-OH PCB52],viability at 0.01 µM,[1],89.4%
same,activity at 0.01 µM,[2],103%
same,activity at 0.01 µM,[3],87.5%
same,viability at 0.01 µM,[4],89.4%
same,viability at 0.1 µM,[1],103%
same,activity at 0.1 µM,[2],101%
same,activity at 0.1 µM,[3],103%
same,viability at 0.1 µM,[4],104%
same,viability at 1 µM,[1],97.9%
same,activity at 1 µM,[2],97.3%
same,activity at 1 µM,[3],97.9%
same,viability at 1 µM,[4],98.1%
same,viability at 10 µM,[1],95.1%
same,activity at 10 µM,[2],116%
same,activity at 10 µM,[3],94.7%
same,viability at 10 µM,[4],94.9%
same,viability at 100 µM,[1],0%
same,activity at 100 µM,[2],7.54%
same,activity at 100 µM,[3],0.0231%
same,viability at 100 µM,[4],0.0461%
same,minimal effective concentration,"1.5 h, 90min, read-out: cm.cam.90min POD",8.86 µM
same,minimal effective concentration,"1.5 h, 90min, read-out: cm.mii.90min POD",45.7 µM
same,minimal effective concentration,"1.5 h, 90min, read-out: cm.mito.90min POD",8.61 µM
same,minimal effective concentration,"1.5 h, 90min, read-out: cm.tc.90min POD",8.75 µM
same,viability at 0.01 µM,[5],99.2%
same,activity at 0.01 µM,[6],98.8%
same,activity at 0.01 µM,[7],99.4%
same,viability at 0.01 µM,[8],99.5%
same,viability at 0.1 µM,[5],102%
same,activity at 0.1 µM,[6],93.3%
same,activity at 0.1 µM,[7],104%
same,viability at 0.1 µM,[8],103%
same,viability at 1 µM,[5],96.1%
same,activity at 1 µM,[6],102%
same,activity at 1 µM,[7],94.1%
same,viability at 1 µM,[8],96%
same,viability at 10 µM,[5],101%
same,activity at 10 µM,[6],88.3%
same,activity at 10 µM,[7],102%
same,viability at 10 µM,[8],101%
same,viability at 100 µM,[5],10.2%
same,activity at 100 µM,[6],193%
same,activity at 100 µM,[7],20.3%
same,viability at 100 µM,[8],49.7%
same,minimal effective concentration,"24 h, read-out: cm.cam.24hrs POD",32.7 µM
same,minimal effective concentration,"24 h, read-out: cm.mii.24hrs POD",65.1 µM
same,minimal effective concentration,"24 h, read-out: cm.mito.24hrs POD",36.7 µM
same,minimal effective concentration,"24 h, read-out: cm.tc.24hrs POD",41.4 µM

# — publication PMC7377239, “Cardiovascular Effects of Polychlorinated Biphenyls and Their Major Metabolites” (Environmental Health Perspectives, 2020)
